Legend:
[1] = biological target: T1, AmPDH (Agaricus meleagris pyranose dehydrogenase, pdh1) (Macropsalliota meleagris, UniProt Q3L245); test: UV-vis spectra before and after TCA/acetone precipitation; type: binding; details: covalent (to H103); pH 7.5 spectra
T1 construct: monomeric glycoprotein about 90 kDa, 64 kDa deglycosylated

[2] = biological target: T2, AmPDH (Agaricus meleagris pyranose dehydrogenase, pdh1) (Macropsalliota meleagris, UniProt Q3L245, H128Y); test: as above; type: binding; details: non-covalent, tightly bound; pH 7.5 spectra
T2 construct: monomeric glycoprotein about 90 kDa, 64 kDa deglycosylated

[3] = biological target: T2, AmPDH (Agaricus meleagris pyranose dehydrogenase, pdh1); test: steady-state kinetics; type: biochemical; details: apparent; electron acceptor; 25 mM D-glucose as donor; pH 4; 30 °C; read-out: H103Y / K m /
From the text: steady-state kinetics on AmPDH (Agaricus meleagris pyranose dehydrogenase, pdh1)

[4] = biological target: T2, AmPDH (Agaricus meleagris pyranose dehydrogenase, pdh1); test: steady-state kinetics, ferrocenium assay; type: biochemical; details: apparent; electron acceptor; 25 mM D-glucose as donor; pH 8.5; 30 °C; read-out: H103Y / K m /
From the text: steady-state kinetics, ferrocenium assay on AmPDH (Agaricus meleagris pyranose dehydrogenase, pdh1)

T2 sequence (Q3L245 26-602 H128Y): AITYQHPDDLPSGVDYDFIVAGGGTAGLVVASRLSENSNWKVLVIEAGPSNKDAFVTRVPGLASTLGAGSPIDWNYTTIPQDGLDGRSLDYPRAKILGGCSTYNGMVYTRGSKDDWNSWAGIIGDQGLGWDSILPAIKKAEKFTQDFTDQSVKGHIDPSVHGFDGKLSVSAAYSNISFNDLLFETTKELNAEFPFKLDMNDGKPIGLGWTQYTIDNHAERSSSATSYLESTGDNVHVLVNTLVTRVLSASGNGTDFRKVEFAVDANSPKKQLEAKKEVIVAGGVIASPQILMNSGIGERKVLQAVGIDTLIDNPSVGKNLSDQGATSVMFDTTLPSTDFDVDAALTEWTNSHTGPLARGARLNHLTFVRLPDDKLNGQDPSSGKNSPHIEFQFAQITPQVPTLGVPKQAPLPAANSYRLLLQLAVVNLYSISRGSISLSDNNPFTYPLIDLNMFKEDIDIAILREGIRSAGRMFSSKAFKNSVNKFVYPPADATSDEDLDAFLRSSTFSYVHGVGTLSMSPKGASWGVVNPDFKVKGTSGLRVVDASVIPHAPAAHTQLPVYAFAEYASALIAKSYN
T1 sequence (Q3L245 26-602): as the sequence (Q3L245 26-602 H128Y) above, with Y103H counted along it

Cc1cc2nc3c(=O)[nH]c(=O)nc-3n(C[C@H](O)[C@H](O)[C@H](O)COP(=O)(O)OP(=O)(O)OC[C@H]3O[C@@H](n4cnc5c(N)ncnc54)[C@H](O)[C@@H]3O)c2cc1C [FAD]
UV-vis spectra before and after TCA/acetone precipitation [1]: the wild-type protein did not release the covalently bound FAD
UV-vis spectra before and after TCA/acetone precipitation [2]: the variant H103Y carries a tightly but non-covalently bound FAD cofactor

O=C1C=CC(=O)C=C1 [1,4-BQ, 1,4-benzoquinone]
Km [3]: 3640 ± 470 µM

F[P-](F)(F)(F)(F)F.[Fe+3].c1cc[cH-]c1.c1cc[cH-]c1 [Fc+PF6, ferrocenium hexafluorophosphate]
Km [4]: 100 ± 10 µM

— publication PMC3948749, “Engineering of Pyranose Dehydrogenase for Increased Oxygen Reactivity” (PLoS ONE, 2014)
